Test results reported in the NIST ThermoML archive (doi:10.1016/j.jct.2018.12.021).
± gives the expanded uncertainty stated by the source.

Legend:
[1] = for Normal melting temperature: Crystal, DTA
[2] = mn = molality of the nth substance listed, in mol/kg; conditions: 303.15 K, Ring tensiometer, m2 = 0

Compound | Normal melting temperature [1] [°C] | surface tension liquid-gas [2] [mN/m] | further results
CCCCCCCCCCCC[n+]1cscc1C.[Br-] [N-dodecyl-4-methylthiazolium bromide] | 103.16 ± 0.7 | – | –
CCCCCCCCCCCC[n+]1ccsc1.[Br-] [N-dodecylthiazolium bromide] | 67 ± 0.7 | – | –
O [water] | – | – | surface tension liquid-gas ([1]; 303.15 K, Liquid, Ring tensiometer): 71.14 ± 2.3 mN/m
O [water] + CCCCCCCCCCCC[n+]1ccsc1.[Br-] | – | 71.14 ± 2.3 | –
O [water] + CCCCCCCCCCCC[n+]1cscc1C.[Br-] | – | 71.14 ± 2.3 | –
